This is an account of results in publication PMC8344761 (Journal of Enzyme Inhibition and Medicinal Chemistry, 2021).

One data set addresses T1, A-Raf (Homo sapiens, UniProt P10398).
T1 sequence (P10398 1-606): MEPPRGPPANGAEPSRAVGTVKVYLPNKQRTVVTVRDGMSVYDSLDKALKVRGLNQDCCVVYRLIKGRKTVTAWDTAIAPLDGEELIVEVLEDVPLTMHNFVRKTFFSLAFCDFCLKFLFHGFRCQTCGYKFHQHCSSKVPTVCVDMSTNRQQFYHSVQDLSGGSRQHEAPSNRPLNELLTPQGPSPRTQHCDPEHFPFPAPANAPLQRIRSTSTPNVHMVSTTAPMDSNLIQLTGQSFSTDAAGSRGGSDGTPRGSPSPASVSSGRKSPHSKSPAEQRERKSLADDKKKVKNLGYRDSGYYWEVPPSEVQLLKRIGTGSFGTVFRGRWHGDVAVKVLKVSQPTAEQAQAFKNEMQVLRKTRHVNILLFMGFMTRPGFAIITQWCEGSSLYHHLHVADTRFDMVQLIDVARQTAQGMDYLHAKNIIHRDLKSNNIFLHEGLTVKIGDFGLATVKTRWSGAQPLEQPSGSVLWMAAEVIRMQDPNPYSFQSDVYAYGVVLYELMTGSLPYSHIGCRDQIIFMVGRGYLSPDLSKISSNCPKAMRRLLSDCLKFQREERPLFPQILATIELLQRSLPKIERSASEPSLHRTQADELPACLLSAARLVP
In words: Raf kinase assay (Kinase HotSpot, Reaction Biology Corp.). The following applies: for inhibition at 1 µM: fixed concentration 1 μM, mean of two independent experiments. The format is biochemical. The protocol: Compounds were delivered into each Raf reaction, followed ∼20 min later by addition of a mixture of ATP and [γ-^33P-ATP] (specific activity approx. 500 cpm/pmol, concentration as required) to a final concentration of 10 µM. […] Then, the reaction was spotted onto a P30 filtermat, and unbound phosphate was removed by washing three times for 5 min in 75 mM phosphoric acid and once in methanol prior to drying and scintillation counting. […] IC50 values and curve fits were obtained using Prism (GraphPad Software, La Jolla, CA).

The target of the next data set is C-Raf (Homo sapiens, UniProt P04049). Described as above. The class given is biochemical. The following applies: for inhibition at 1 µM: read-out: Inhibition (%) C-Raf. The protocol:
(§1) Compounds were delivered into each Raf reaction, followed ∼20 min later by addition of a mixture of ATP and [γ-^33P-ATP] (specific activity approx. 500 cpm/pmol, concentration as required) to a final concentration of 10 µM. After incubation for 40 min at 25 °C, the reaction was stopped by the addition of a 3% phosphoric acid solution. Then, the reaction was spotted onto a P30 filtermat, and unbound phosphate was removed by washing three times for 5 min in 75 mM phosphoric acid and once in methanol prior to drying and scintillation counting. […] IC50 values and curve fits were obtained using Prism (GraphPad Software, La Jolla, CA).

The subject of another data set is Hep3B. In words: Cell proliferation assay (MTT). The class given is cell-based. The following applies: Homo sapiens, 48 h, mean ± SEM of three independent experiments, read-out: Cancer cell proliferation IC50 Hep3B. How it is done: (§2) Hepatocellular carcinoma cell lines (HepG2, Huh7), human pancreatic ductal epithelial cell line (H6c7), and normal human colon cell line (CCD841) were obtained from the American Type Culture Collection (ATCC) (Manassas, VA, USA). Cells were cultured in DMEM/High Glucose media (Hep3B, Huh7, CCD841) or MEM/EBSS media (HepG2) containing 10% FBS, 100 IU/ml of penicillin and 100 µg/ml of streptomycin. H6c7 cells were cultured in keratinocyte serum free media supplemented with epidermal growth factor and bovine pituitary extract. Cells were maintained in 5% CO2 humidified atmosphere at 37 °C.
(§3) Cells were seeded in a 96-well plate and allowed to adhere for 24 h. The cells were serum starved in 1% serum containing medium for 12 h, and then treated with drugs in 10% serum-containing medium. After incubation for 48 h, cell proliferation was measured using MTT assay. Optical density was measured at 540 nm using a Spectrostar Nano microplate reader (BMG LABTECH GmbH, Ortenberg, Germany).

For another data set, the system named is Huh7. In words: Cell proliferation assay (MTT). The class given is cell-based. The following applies: Homo sapiens, Huh-7, 48 h, mean ± SEM of three independent experiments, read-out: Cancer cell proliferation IC50 Huh7. The protocol:
as §2, §3

The next data set has as its system HepG2. In words: Cell proliferation assay (MTT). The following applies: Homo sapiens, 48 h, mean ± SEM of three independent experiments, read-out: Cancer cell proliferation IC50 HepG2. The format is cell-based. How it is done: as §2, §3
Another data set concerns Hep3B cells. In words: Sphere formation assay. The class given is cell-based. The following applies: Homo sapiens, 48 h drug treatment, 13 days culture, read-out: % Inhibition of sphere forming Hep3B. How it is done:
(§4) Sphere forming ability of Hep3B and Huh7 cells were examined after incubation with drugs for 48 h. Briefly, 3 × 10^3 cells which were pre-treated with or without drugs in prEGM media (Lonza, Basel, Switzerland) were seeded on an ultra-low adhering 24 well plate (Corning Incorporated Costar, Corning, NY). Twice a week, 500 µL of used medium was replaced with fresh prEGM media. At 13 days after plating, images of spheres were captured using Celloger Mini (Curiosis Inc., Seoul, South Korea). The number of spheroids over 50 µm in diameter was counted by using Image J software (National Institute of Health, Bethesda, MD).

The subject of another data set is Huh7 cells. In words: Sphere formation assay. The class given is cell-based. The following applies: Homo sapiens, Huh-7, 48 h drug treatment, 13 days culture, read-out: % Inhibition of sphere forming Huh7. How it is done:
as §4

Data set [1] can be described thus: Cytotoxicity assay (MTT), normal cells. The following applies: human, mean ± SEM. The format is cell-based, human. How it is done:
as §2
(§5) Cells were seeded in a 96-well plate and allowed to adhere for 24 h. Cells in low serum (1%)-containing medium were treated with drugs for 48 h. In case of H6c7 cells, cells in keratinocyte serum free media were treated with drugs for 48 h. Then, cell viability was measured using MTT assay. Optical density was measured at 540 nm using a Spectrostar Nano microplate reader (BMG LABTECH).

For another data set, the system named is CCD841. In words: Cytotoxicity assay (MTT), normal cells. The class given is cell-based, human. The following applies: normal colon epithelial cell line, 48 h, mean ± SEM. How it is done: as §2, §5
The next data set relates to H6c7. In words: Cytotoxicity assay (MTT), normal cells. The class given is cell-based, human. The following applies: normal pancreatic ductal epithelial cell line, 48 h, mean ± SEM. The protocol:
as §2, §5

Data set [2] concerns Huh7 cells xenografted onto CAM. In words: Huh7-xenografted CAM tumour model. The following applies: 10 µM final concentration on CAM; Huh7 xenograft. The class given is in vivo, chick. How it is done:
Cancer cell xenograft onto chick chorioallantoic membrane (CAM), an in vivo tumour model, was used to evaluate anti-tumour efficacy of compounds. Fertilised chicken eggs purchased from Byeolbichon Farm (Gyeongbuk, South Korea) were incubated at 37 °C with 55% relative humidity. On day 9 of egg incubation (embryonic day 9, E9), a small hole was made in the shell over the air sac after the selection of bifurcated vessels. Another hole was made on the broadside using a needle by applying negative pressure from the wider part, creating false air sac. Using a grinding wheel (Dremel, Racine, WI), a small window (1 cm^2) was created in the eggshell above the false air sac. For generation of xenograft CAM tumour model, Huh7 cells (1.5 × 10^6 cells/CAM) were inoculated on the CAM with or without test drugs (10 µM final concentration). On day 13 of egg incubation (E13), tumour tissues attached to CAM were resected from the embryo and harvested. Photographs of tumour as well as blood vessel branches were taken using optical microscope (Olympus Corporation, Tokyo, Japan). Tumour tissues were weighted and the number of vessel branch points within the tumour region was counted.

For a further data set, the target named is B-Raf (V600E) (Homo sapiens, UniProt P15056, V600E). In words: Raf kinase assay (Kinase HotSpot, Reaction Biology Corp.). The format is biochemical. The following applies: for inhibition at 1 µM: fixed concentration 1 μM, mean of two independent experiments, B-Raf (V599E). How it is done: as §1
B-Raf (V600E), sequence (P15056 whole entry V600E): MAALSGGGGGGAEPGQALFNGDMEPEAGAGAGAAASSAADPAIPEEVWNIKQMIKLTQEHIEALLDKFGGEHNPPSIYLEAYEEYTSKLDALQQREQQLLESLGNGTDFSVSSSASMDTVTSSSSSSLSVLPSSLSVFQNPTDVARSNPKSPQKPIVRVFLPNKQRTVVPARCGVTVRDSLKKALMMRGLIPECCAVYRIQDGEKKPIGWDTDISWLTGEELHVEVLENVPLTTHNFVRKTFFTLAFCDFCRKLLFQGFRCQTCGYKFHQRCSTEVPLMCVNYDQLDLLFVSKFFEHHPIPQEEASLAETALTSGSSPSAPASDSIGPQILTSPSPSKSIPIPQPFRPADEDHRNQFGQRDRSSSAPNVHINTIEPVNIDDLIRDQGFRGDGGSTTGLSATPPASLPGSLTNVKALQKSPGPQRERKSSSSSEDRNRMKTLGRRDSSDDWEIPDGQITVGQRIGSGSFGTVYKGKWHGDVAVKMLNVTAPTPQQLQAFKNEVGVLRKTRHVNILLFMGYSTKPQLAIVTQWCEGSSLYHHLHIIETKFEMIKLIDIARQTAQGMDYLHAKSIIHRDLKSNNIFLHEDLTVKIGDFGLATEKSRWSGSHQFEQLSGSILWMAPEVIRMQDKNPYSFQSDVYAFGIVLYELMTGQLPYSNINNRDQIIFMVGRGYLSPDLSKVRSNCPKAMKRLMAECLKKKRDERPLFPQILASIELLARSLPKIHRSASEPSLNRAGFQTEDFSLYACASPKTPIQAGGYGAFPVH
The next data set has as its target B-Raf (Homo sapiens, UniProt P15056). The data set is described as above. The class given is biochemical. The following applies: for inhibition at 1 µM: fixed concentration 1 μM, mean of two independent experiments. The protocol:
as §1

The target in a further data set is T2, VEGFR-2 tyrosine kinase (Homo sapiens, UniProt P35968).
T2 construct: purchased Promega
T2 sequence (P35968 20-1356): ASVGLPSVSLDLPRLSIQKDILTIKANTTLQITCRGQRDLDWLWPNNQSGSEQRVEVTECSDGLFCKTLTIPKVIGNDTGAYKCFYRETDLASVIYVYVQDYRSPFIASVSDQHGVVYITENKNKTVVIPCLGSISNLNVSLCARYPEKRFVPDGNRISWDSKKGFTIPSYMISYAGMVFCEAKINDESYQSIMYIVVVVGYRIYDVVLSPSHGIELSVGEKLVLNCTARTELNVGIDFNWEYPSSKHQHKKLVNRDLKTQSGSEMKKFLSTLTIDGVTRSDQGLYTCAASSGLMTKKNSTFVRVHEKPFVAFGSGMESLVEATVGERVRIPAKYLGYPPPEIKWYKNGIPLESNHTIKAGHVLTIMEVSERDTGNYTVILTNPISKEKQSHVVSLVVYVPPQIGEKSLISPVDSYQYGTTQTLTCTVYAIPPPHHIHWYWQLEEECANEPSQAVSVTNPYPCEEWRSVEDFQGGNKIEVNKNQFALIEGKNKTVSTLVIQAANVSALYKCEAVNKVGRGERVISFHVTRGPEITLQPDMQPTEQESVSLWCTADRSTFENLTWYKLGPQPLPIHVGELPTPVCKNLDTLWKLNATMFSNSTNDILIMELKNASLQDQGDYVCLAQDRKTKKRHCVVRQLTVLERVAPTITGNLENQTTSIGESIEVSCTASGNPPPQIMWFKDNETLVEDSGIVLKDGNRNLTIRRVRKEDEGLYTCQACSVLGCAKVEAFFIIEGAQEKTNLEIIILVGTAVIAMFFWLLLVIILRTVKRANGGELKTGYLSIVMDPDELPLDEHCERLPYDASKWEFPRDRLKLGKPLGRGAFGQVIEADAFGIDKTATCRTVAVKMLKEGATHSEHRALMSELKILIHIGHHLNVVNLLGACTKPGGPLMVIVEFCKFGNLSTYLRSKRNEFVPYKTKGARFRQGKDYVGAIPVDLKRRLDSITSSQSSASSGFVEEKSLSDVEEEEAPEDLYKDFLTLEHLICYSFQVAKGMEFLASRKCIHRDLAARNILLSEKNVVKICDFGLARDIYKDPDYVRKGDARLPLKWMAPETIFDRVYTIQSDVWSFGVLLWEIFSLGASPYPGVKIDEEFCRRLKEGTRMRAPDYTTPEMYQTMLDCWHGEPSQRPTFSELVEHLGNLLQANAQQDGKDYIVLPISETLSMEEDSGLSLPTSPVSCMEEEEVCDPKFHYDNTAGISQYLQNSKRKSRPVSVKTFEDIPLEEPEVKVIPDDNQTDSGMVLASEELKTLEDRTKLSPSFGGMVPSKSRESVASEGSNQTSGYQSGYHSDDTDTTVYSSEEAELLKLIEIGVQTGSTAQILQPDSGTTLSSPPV
In words: VEGFR-2 (KDR) kinase assay (ADP-glow). The format is biochemical. The following applies: fixed concentration 1 µM; read-out: inhibitory activity against VEGFR-2 tyrosine kinase. In general terms: In ADP-Glo the light output rises with the ADP produced.

Setting [3] is: CCD841 cells (normal colon epithelial cell line).
Where [4] appears, read: H6c7 cells (normal pancreatic ductal epithelial cell line).
[5] abbreviates: fixed concentration 1 μM, mean of two independent experiments.

The structures appear in SMILES notation. Like-named read-outs stand apart in the source and are kept apart here.

C-Raf, sequence (P04049 whole entry): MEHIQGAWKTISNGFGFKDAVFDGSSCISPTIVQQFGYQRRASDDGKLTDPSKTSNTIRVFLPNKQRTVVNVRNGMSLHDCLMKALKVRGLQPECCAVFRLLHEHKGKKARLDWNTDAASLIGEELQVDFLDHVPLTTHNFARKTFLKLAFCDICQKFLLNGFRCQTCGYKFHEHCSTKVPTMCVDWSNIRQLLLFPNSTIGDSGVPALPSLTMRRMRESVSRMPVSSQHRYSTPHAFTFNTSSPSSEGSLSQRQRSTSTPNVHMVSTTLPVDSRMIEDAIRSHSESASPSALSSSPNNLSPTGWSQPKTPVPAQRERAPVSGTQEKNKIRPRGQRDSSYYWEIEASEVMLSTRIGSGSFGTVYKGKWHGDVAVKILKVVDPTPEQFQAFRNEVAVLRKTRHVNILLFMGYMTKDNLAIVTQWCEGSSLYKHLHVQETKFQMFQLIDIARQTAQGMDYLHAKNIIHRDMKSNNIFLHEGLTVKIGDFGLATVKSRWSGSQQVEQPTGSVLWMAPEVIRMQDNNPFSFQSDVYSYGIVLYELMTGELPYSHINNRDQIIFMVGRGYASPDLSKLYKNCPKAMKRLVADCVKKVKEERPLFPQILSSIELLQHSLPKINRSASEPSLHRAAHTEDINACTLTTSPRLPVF
B-Raf, sequence (P15056 whole entry): as the sequence (P15056 whole entry V600E) above, with E600V counted along it

A word on the CC50: it is the concentration at which the toxic effect on the cells reaches its halfway point. Low readings indicate harm at low concentration, high ones better tolerance by the cells. As to `CNC(=O)c1cc(Oc2ccc(NC(=O)Nc3ccc(Cl)c(C(F)(F)F)c3)cc2)ccn1` [Sorafenib, reference compound], the inhibition at 1 µM was determined as 93.7% at A-Raf, 97.6% at C-Raf, 43.6% in the data set on Hep3B cells and 59.7% in the data set with Huh7 cells. Further, the IC50 in the data set on Hep3B amounted to 1.22 ± 0.05 µM; in the data set with Huh7 it was 1.17 ± 0.04 µM; in the data set with HepG2, 1.29 ± 0.02 µM. Also, the inhibition at 10 µM with Hep3B cells came to 56.4%; in the data set on Huh7 cells, 85.9%. Moreover, the CC50 at 48 h in data set [1] (setting [3]) was approximately 4.1 µM; in [1] (setting [4]) it was approximately 4.4 µM. In addition, the half-maximal cytotoxic concentration (CC50) worked out at 4.08 ± 0.58 µM in the data set with CCD841 and 4.36 ± 0.21 µM in the data set with H6c7. In addition, in data set [2], the “inhibition of tumour-induced angiogenesis (new vessel branches)” value is on record as “significantly blocked”.
A word on the melting point: it is the temperature of the solid-liquid transition. For `CNC(=O)c1cc(Oc2c(C)nc(NC(=O)Nc3cccc(C(F)(F)F)c3)c(C)c2C)ccn1` [Compound 6, N-Methyl-4-((2,4,5-trimethyl-6–(3-(3-(trifluoromethyl)phenyl)ureido)pyridin-3-yl)oxy)picolinamide], the melting point came to 244 °C. The inhibition at 1 µM at A-Raf is 84.6%. Besides, the IC50 on A-Raf (mean ± SD of two independent experiments, read-out: In vitro Raf kinase inhibition IC50 A-Raf) is 0.057 ± 0.0086 µM. Moreover, the inhibition at 1 µM on B-Raf (V600E) stood at 88.2%. Further, the IC50 on B-Raf (V600E) (mean ± SD of two independent experiments, read-out: In vitro Raf kinase inhibition IC50 B-Raf(V600E)) amounted to 0.07 ± 0.0004 µM. For the same compound, the inhibition at 1 µM against B-Raf was found to be 65%. Moreover, the IC50 at B-Raf (mean ± SD of two independent experiments, read-out: In vitro Raf kinase inhibition IC50 B-Raf) was 0.216 ± 0.0436 µM. Further, the inhibition at 1 µM on C-Raf (setting [5]) is 92.5%. For the same compound, on C-Raf (mean ± SD of two independent experiments, read-out: In vitro Raf kinase inhibition IC50 C-Raf), the IC50 stood at 0.022 ± 0.0008 µM. Further, the IC50 in the data set with Hep3B was 6.49 ± 0.12 µM. Moreover, the IC50 with Huh7 came out at 4.77 ± 0.09 µM. For the same compound, the IC50 in the data set with HepG2 worked out at 5.02 ± 0.06 µM. Besides, in the data set on Hep3B cells, the inhibition at 1 µM amounted to 38.3% and the inhibition at 10 µM was 55.6%. In the data set on Huh7 cells, the inhibition at 1 µM was 23.8% and the inhibition at 10 µM is 44.2%. Also, the CC50 at 48 h in data set [1] (setting [3]) is more than 10 µM. The half-maximal cytotoxic concentration (CC50) at 48 h in data set [1] (setting [4]) is more than 10 µM. Further, the inhibition at 1 µM at VEGFR-2 tyrosine kinase was approximately -6%.
Compound `CNC(=O)c1cc(Oc2c(C)nc(NC(=O)Nc3ccc(Br)cc3)c(C)c2C)ccn1` [Compound 9, 4-((6–(3-(4-Bromophenyl)ureido)-2,4,5-trimethylpyridin-3-yl)oxy)-N-methylpicolinamide] displayed a melting point of 268 °C. Also, on A-Raf, the inhibition at 1 µM stood at 49.9%. In addition, the inhibition at 1 µM against B-Raf (V600E) was 58.9%. Also, the inhibition at 1 µM against B-Raf was found to be 40.8%. Moreover, the inhibition at 1 µM on C-Raf (setting [5]) turned out to be 74.6%.
On the same counts, the results for `CNC(=O)c1cc(Oc2c(C)nc(NC(=O)Nc3ccc(C(C)C)cc3)c(C)c2C)ccn1` [Compound 15, 4-((6-(3-(4-Isopropylphenyl)ureido)-2,4,5-trimethylpyridin-3-yl)oxy)-N-methylpicolinamide] are 188 °C, 33.6%, 39%, 43.2% and 76.1%.
Turning to `CNC(=O)c1cc(Oc2c(C)nc(NC(=O)Nc3ccc([N+](=O)[O-])cc3)c(C)c2C)ccn1` [Compound 10, N-Methyl-4-((2,4,5-trimethyl-6-(3-(4-nitrophenyl)ureido)pyridin-3-yl)oxy)picolinamide], the melting point was determined as 262 °C. Also, the inhibition at 1 µM against A-Raf came to 61.5%. Also, the inhibition at 1 µM against B-Raf (V600E) was determined as 74.7%. Further, the inhibition at 1 µM at B-Raf is 60.4%. For the same compound, the inhibition at 1 µM on C-Raf (setting [5]) came out at 83.1%.
`CNC(=O)c1cc(Oc2c(C)nc(NC(=O)Nc3ccc(OC)cc3)c(C)c2C)ccn1` [Compound 13, 4-((6-(3-(4-Methoxyphenyl)ureido)-2,4,5-trimethylpyridin-3-yl)oxy)-N-methylpicolinamide] gave a melting point of 258 °C. In addition, the inhibition at 1 µM against A-Raf came out at 14.7%. Also, the inhibition at 1 µM against B-Raf (V600E) is 33.4%. The inhibition at 1 µM on B-Raf stood at 5.1%. For the same compound, at C-Raf (setting [5]), the inhibition at 1 µM was found to be 55.9%.
